Where two headings read alike, the source gives them in different places.

This is an account of results in patent publication US4826875A, “Pharmaceutical compositions containing levodopa methyl ester, preparation and therapeutic applications thereof” (priority 1986, dated 1989).

Series [1] in a line: clinical. More on the design: species or system patients. As to conditions: human, in vivo, po. The text has this: The pharmaceutical composition as per Example 1 above has been orally administered to parkinsonian patients manifesting the on-off phenomenon, in order to evaluate the bioavailability and the clinical effect of LDME in this formulation in comparison with levodopa.
(§1) As previously illustrated, patients manifesting the on-off phenomenon alternate between periods when parkinsonian signs are relatively severe and intervals when parkinsonism is largely, if not completely, replaced by unvoluntary movements.
The absorption of LDME was infact very rapid, reaching the maximum concentration peak at 40-45 minutes from the administration.
Levodopa plasmatic levels after single oral administration
of corresponding doses of active principle (mg 200) re-
spectively of LDME and levodopa in two patients.

Series [2] concerns parkinsonian patients manifesting the on-off phenomenon. The series is described as follows: Clinical effect of oral LDME (Example 1 composition) vs levodopa in parkinsonian patients manifesting the on-off phenomenon. Format: in vivo.
Source text: as §1

The nature of series [3]: Solubility. As to conditions: aqueous compositions. Type of series: physicochemical.
Series [4] deals with reserpine-treated cats. As to conditions: cited from earlier work.
The conditions of series [5]: other experimental patterns; cited from earlier work.
A short description of series [6]: Absorption by rectal route.
Series [7] relates to Parkinson's disease. As to conditions: cited from earlier work.
The conditions of series [8]: in vivo.
The conditions of series [9]: cited from earlier work.

Take `COC(=O)[C@@H](N)Cc1ccc(O)c(O)c1` [LDME, levodopa methyl ester]: in [1], the absorption result was “very rapid” and the “time of maximum concentration peak from the administration” value lay within 40 to 45 min. The compound further had a Levodopa plasmatic levels in series [1] (0 min) of 0 µg/mL. This compound yielded a Levodopa plasmatic levels in series [1] (330 min) of 0.20 µg/mL. Moreover, in [2] (composition of Example 1), the “duration of action ("on" period duration) in respect to levodopa” value is reported as “superior” and the “onset of the therapeutic effect” value fell in the range of 20 to 30 min. In addition, the “dyskinesias at the moment of the appearance of the mobility ("on" phase)” value in [2] (composition of Example 1, subjects presenting "long-term syndrome", preliminary trials) is recorded as “does not seem to induce dyskinesias”. Moreover, in [3], the solubility entry is “high solubility”. In addition, the “effects compared with levodopa (brain catecholamine levels, conditioned avoidance response)” value in series [4] is “causes the same effects as levodopa”. For the same compound, the “activity compared with the starting compound (levodopa)” value in series [5] was “as active as the starting compound”. The “rectal absorption / plasma levels by rectal administration” value in [6] was “detectable plasma levels sufficient to assure a therapeutic effect”.

As for `CC(C)C[C@H]1C(=O)N2CCC[C@H]2[C@]2(O)O[C@](NC(=O)[C@@H]3C=C4c5cccc6[nH]c(Br)c(c56)C[C@H]4N(C)C3)(C(C)C)C(=O)N12` [bromocriptine], the “prevention or reduction of response fluctuations” value in series [7] (alternative therapies with dopaminergic drugs) is listed as “do not give actual advantages in prevention or reduction of response fluctuations”.

With `N[C@@H](Cc1ccc(O)c(O)c1)C(=O)O` [levodopa, (-)-3-(3,4-dihydroxyphenyl)-L-alanine], in series [1] (0 min), the Levodopa plasmatic levels is 0 µg/mL. Also, in [1] (0.25 h), the Levodopa plasmatic levels worked out at 0.35 µg/mL. This compound also showed a Levodopa plasmatic levels in [1] (0.5 h) of 0.66 µg/mL. In series [1] (0.75 h), this compound gave a Levodopa plasmatic levels of 0.88 µg/mL. The compound also had a Levodopa plasmatic levels in series [1] (1 h) of 1.15 µg/mL. In series [1] (80 min), the Levodopa plasmatic levels turned out to be 1.67 µg/mL. In series [1] (100 min), this compound displayed a Levodopa plasmatic levels of 1.39 µg/mL. The Levodopa plasmatic levels in series [1] (2 h) was found to be 1.35 µg/mL. The same compound had a Levodopa plasmatic levels in series [1] (140 min) of 1.05 µg/mL. In addition, the Levodopa plasmatic levels in series [1] (160 min) is 0.82 µg/mL. The compound further yielded a Levodopa plasmatic levels in series [1] (3 h) of 0.80 µg/mL. Also, in [1] (3.5 h), the Levodopa plasmatic levels was found to be 0.58 µg/mL. The same compound returned a Levodopa plasmatic levels in series [1] (4 h) of 0.45 µg/mL. The Levodopa plasmatic levels in series [1] (4.5 h) was determined as 0.38 µg/mL. Moreover, the Levodopa plasmatic levels in [1] (5 h) worked out at 0.17 µg/mL. Besides, in series [1] (Levodopa plasmatic levels), the concentration at 0.25 h amounted to 310 ng/mL, the concentration at 0.5 h is 1050 ng/mL, the concentration at 0.75 h is 1410 ng/mL and the concentration at 1 h worked out at 1130 ng/mL. Further, in series [1] (Levodopa plasmatic levels), the concentration at 80 min was determined as 1470 ng/mL, the concentration at 100 min stood at 1170 ng/mL, the concentration at 2 h was found to be 930 ng/mL and the concentration at 140 min worked out at 1030 ng/mL. Moreover, in series [1] (Levodopa plasmatic levels), the concentration at 160 min turned out to be 820 ng/mL, the concentration at 3 h turned out to be 650 ng/mL, the concentration at 3.5 h amounted to 700 ng/mL and the concentration at 4 h stood at 490 ng/mL. In series [1] (Levodopa plasmatic levels), this compound returned a concentration at 4.5 h of 350 ng/mL, a concentration at 5 h of 280 ng/mL and a concentration at 5.5 h of 420 ng/mL. Besides, the “rectal absorption / plasma levels by rectal administration” value in series [8] is recorded as “not absorbed by rectal mucosa”. The solubility result in series [9] is “slightly soluble”. Moreover, in series [7] (chronic treatment per os), the “duration of efficacy ("end-of-dose deterioration")” value is 3 to 4 h and the unwanted effects result is “abnormal unvoluntary movements”. Further, in [7] (constant intravenous infusion), the clinical response result is “a stable clinical response can be maintained for hours”.
